Assay results from the supplement of paper PMC10307832.

How the values were obtained:
Assay in all cases: relative viability (nuclei count vs DMSO), 5 days (fraction); higher = more cells survive
ABC-1 = tested on: ABC-1
How it was run: (§1)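 Medians of duplicate plates are given as relative viability. That measure is the nuclei count in treated wells divided by the count in vehicle wells. Counts were taken on 4× images of lung cancer cell lines in 1536-well plates, 5 days after pin-tool dosing the day after seeding with one drug alone or a fixed anchor-drug dose plus five library-drug doses (not always all listed) in √10 steps.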

NCI-H2126 = tested on: NCI-H2126
How it was run: as §1

Calu-6 = tested on: Calu-6
How it was run: as §1

NCI-H1703 = tested on: NCI-H1703
How it was run: as §1

A549 = tested on: A549
How it was run: as §1

NCI-H1299 = tested on: NCI-H1299
How it was run: as §1

EKVX = tested on: EKVX
How it was run: as §1

IA-LM = tested on: IA-LM
How it was run: as §1

EBC-1 = tested on: EBC-1
How it was run: as §1

SMILES: C=C1C(=O)O[C@@H](CCCCCCCC)[C@@H]1C(=O)O [C-75] + Cc1nc(NC(=O)N2CCC[C@H]2C(N)=O)sc1-c1ccnc(C(C)(C)C(F)(F)F)c1 [Alpelisib] (partner 2 µM)
- relative viability (ABC-1; first compound 0.08 µM): 0.983
- relative viability (ABC-1; first compound 0.253 µM): 1.12
- relative viability (ABC-1; first compound 0.8 µM): 0.879
- relative viability (ABC-1; first compound 2.53 µM): 0.991
- relative viability (ABC-1; first compound 8 µM): 0.585
- relative viability (NCI-H2126; first compound 0.08 µM): 0.79
- relative viability (NCI-H2126; first compound 0.253 µM): 0.826
- relative viability (NCI-H2126; first compound 0.8 µM): 0.732
- relative viability (NCI-H2126; first compound 2.53 µM): 0.621
- relative viability (NCI-H2126; first compound 8 µM): 0.774
- relative viability (Calu-6; first compound 0.08 µM): 1.04
- relative viability (Calu-6; first compound 0.253 µM): 0.926
- relative viability (Calu-6; first compound 0.8 µM): 0.983
- relative viability (Calu-6; first compound 2.53 µM): 0.796
- relative viability (Calu-6; first compound 8 µM): 0.932
- relative viability (NCI-H1703; first compound 0.08 µM): 0.337
- relative viability (NCI-H1703; first compound 0.253 µM): 0.348
- relative viability (NCI-H1703; first compound 0.8 µM): 0.325
- relative viability (NCI-H1703; first compound 2.53 µM): 0.28
- relative viability (NCI-H1703; first compound 8 µM): 0.327
- relative viability (A549; first compound 0.08 µM): 0.828
- relative viability (A549; first compound 0.253 µM): 0.909
- relative viability (A549; first compound 0.8 µM): 0.824
- relative viability (A549; first compound 2.53 µM): 0.579
- relative viability (A549; first compound 8 µM): 0.716
- relative viability (NCI-H1299; first compound 0.08 µM): 1.04
- relative viability (NCI-H1299; first compound 0.253 µM): 0.979
- relative viability (NCI-H1299; first compound 0.8 µM): 1.1
- relative viability (NCI-H1299; first compound 2.53 µM): 0.966
- relative viability (NCI-H1299; first compound 8 µM): 1.07
- relative viability (EKVX; first compound 0.08 µM): 0.885
- relative viability (EKVX; first compound 0.253 µM): 0.863
- relative viability (EKVX; first compound 0.8 µM): 0.913
- relative viability (EKVX; first compound 2.53 µM): 0.583
- relative viability (EKVX; first compound 8 µM): 0.969
- relative viability (IA-LM; first compound 0.08 µM): 0.71
- relative viability (IA-LM; first compound 0.253 µM): 0.815
- relative viability (IA-LM; first compound 0.8 µM): 0.74
- relative viability (IA-LM; first compound 2.53 µM): 0.648
- relative viability (IA-LM; first compound 8 µM): 0.761
- relative viability (EBC-1; first compound 0.08 µM): 0.904
- relative viability (EBC-1; first compound 0.253 µM): 0.763
- relative viability (EBC-1; first compound 0.8 µM): 0.792
- relative viability (EBC-1; first compound 2.53 µM): 0.7
- relative viability (EBC-1; first compound 8 µM): 0.712

SMILES: CC1(C)CCC(c2ccc(Cl)cc2)=C(CN2CCN(c3ccc(C(=O)NS(=O)(=O)c4ccc(N[C@H](CCN5CCOCC5)CSc5ccccc5)c(S(=O)(=O)C(F)(F)F)c4)cc3)CC2)C1 [Navitoclax] + CS(=O)(=O)CCNCc1ccc(-c2ccc3ncnc(Nc4ccc(OCc5cccc(F)c5)c(Cl)c4)c3c2)o1 [Lapatinib] (partner 2 µM)
- relative viability (ABC-1; first compound 0.005 µM): 1.1
- relative viability (ABC-1; first compound 0.01581 µM): 1.46
- relative viability (ABC-1; first compound 0.05 µM): 1.09
- relative viability (ABC-1; first compound 0.1581 µM): 1.19
- relative viability (ABC-1; first compound 0.5 µM): 1.05
- relative viability (NCI-H2126; first compound 0.005 µM): 0.784
- relative viability (NCI-H2126; first compound 0.01581 µM): 0.757
- relative viability (NCI-H2126; first compound 0.05 µM): 0.739
- relative viability (NCI-H2126; first compound 0.1581 µM): 0.729
- relative viability (NCI-H2126; first compound 0.5 µM): 0.702
- relative viability (Calu-6; first compound 0.005 µM): 1.14
- relative viability (Calu-6; first compound 0.01581 µM): 1.13
- relative viability (Calu-6; first compound 0.05 µM): 1.05
- relative viability (Calu-6; first compound 0.1581 µM): 1.04
- relative viability (Calu-6; first compound 0.5 µM): 1.01
- relative viability (NCI-H1703; first compound 0.005 µM): 0.928
- relative viability (NCI-H1703; first compound 0.01581 µM): 1.18
- relative viability (NCI-H1703; first compound 0.05 µM): 1.34
- relative viability (NCI-H1703; first compound 0.1581 µM): 1.27
- relative viability (NCI-H1703; first compound 0.5 µM): 1.01
- relative viability (A549; first compound 0.005 µM): 1.06
- relative viability (A549; first compound 0.01581 µM): 1.02
- relative viability (A549; first compound 0.05 µM): 1.07
- relative viability (A549; first compound 0.1581 µM): 0.945
- relative viability (A549; first compound 0.5 µM): 0.949
- relative viability (NCI-H1299; first compound 0.005 µM): 0.931
- relative viability (NCI-H1299; first compound 0.01581 µM): 0.956
- relative viability (NCI-H1299; first compound 0.05 µM): 1
- relative viability (NCI-H1299; first compound 0.1581 µM): 0.979
- relative viability (NCI-H1299; first compound 0.5 µM): 1
- relative viability (EKVX; first compound 0.005 µM): 0.233
- relative viability (EKVX; first compound 0.01581 µM): 0.21
- relative viability (EKVX; first compound 0.05 µM): 0.161
- relative viability (EKVX; first compound 0.1581 µM): 0.206
- relative viability (EKVX; first compound 0.5 µM): 0.206
- relative viability (IA-LM; first compound 0.005 µM): 0.659
- relative viability (IA-LM; first compound 0.01581 µM): 1.16
- relative viability (IA-LM; first compound 0.05 µM): 1.06
- relative viability (IA-LM; first compound 0.1581 µM): 1.02
- relative viability (IA-LM; first compound 0.5 µM): 0.903
- relative viability (EBC-1; first compound 0.005 µM): 0.181
- relative viability (EBC-1; first compound 0.01581 µM): 0.2
- relative viability (EBC-1; first compound 0.05 µM): 0.193
- relative viability (EBC-1; first compound 0.1581 µM): 0.245
- relative viability (EBC-1; first compound 0.5 µM): 0.212
